Values of other authors as cited in patent publication US20230181491A1, “COMPOSITIONS AND METHODS FOR THE TREATMENT AND MANAGEMENT OF INFLAMMATION USING HYDROXYNORKETAMINE” (SPIRIFY PHARMA INC., priority 2020, published 2023).
Structures can show the parent of a compound that is named as a salt.

Tested on: rats
Conditions: cited from earlier work

| Molecule | spontaneous locomotor activity during the postanesthetic recovery phase |
| --- | --- |
| CNC1(c2ccccc2Cl)CCCCC1=O (racemic) [(R,S)-ketamine hydrochloride] | increased spontaneous locomotor activity |
| NC1(c2ccccc2Cl)CCCCC1=O (racemic) [(R,S)-norketamine] | increased spontaneous locomotor activity |
| (2R,6R;2S,6S)-HNK | no anesthetic or hyperlocomotor effects |
